Experimental findings from paper PMC12557437, “Research towards selective inhibition of the CLK3 kinase” (Beilstein Journal of Organic Chemistry, 2025) are described below.

One experiment addresses T1, Hs_DYRK1B (Homo sapiens, UniProt Q9Y463).
T1 construct: purchased Eurofins, UK
Put plainly: radiometric γ33P-ATP kinase assay (Eurofins). Type of experiment: biochemical. Conditions: 15 µM ATP; dose-response, points in duplicate. Here is the method: (§1) Finally, in order to complete our profiling of VS-77, we then measured its activity against the DYRK 1A, DYRK1B and DYRK2 kinases and the results are reported in Table 3.
(§2) 2- Kinase inhibition studies
(§3) Kinase enzymatic activities were assayed using both luminescent ADP detection assay
(§4) (ADP-GloTM assay kit, Promega, Madison, WI) or radiometric kinase assay. These
(§5) assays were performed using the protocols described in our previous publication. […]
(§6) 1.Brahmaiah, D.; Kanaka Durga Bhavani, A.; Aparna, P.; Sampath Kumar, N.; Solhi,
(§7) H.; Le Guevel, R.; Baratte, B.; Ruchaud, S.; Bach, S.; Singh Jadav, S.; Raji Reddy, C.;
(§8) Roisnel, T.; Mosset, P.; Levoin, N.; Grée, R. Bioorg.
(§9) R.; Baratte, B.; Robert, T.; Ruchaud, S.; Bach, S.; Jadav, S. S.; Reddy, C. R.; Mosset,
(§10) P.; Gouault, N.; Levoin, N.; Grée, R. Molecules 2022, 27, 6149. […]

The target of a further experiment is T2, Hs_DYRK1A (Homo sapiens, UniProt Q13627).
T2 construct: purchased Eurofins, UK
Put plainly: radiometric γ33P-ATP kinase assay (Eurofins). It counts as biochemical. Particulars: 15 µM ATP; dose-response, points in duplicate. Here is the method: as §1, §2, §3, §4, §5, §6, §7, §8, §9, §10

Experiment [1] concerns the target T3, Rn_DYRK1A (Rattus norvegicus, UniProt Q63470). The experiment is described as follows: radiometric γ33P-ATP kinase assay (Eurofins). Type of experiment: biochemical. Conditions: 15 µM ATP; dose-response, points in duplicate. The method, then: as §1, §2, §3, §4, §5, §6, §7, §8, §9, §10
The next experiment addresses T4, Hs_DYRK2 (Homo sapiens, UniProt Q92630).
T4 construct: purchased Eurofins, UK
The experiment is described as follows: radiometric γ33P-ATP kinase assay (Eurofins). Type of experiment: biochemical. Conditions: 15 µM ATP; dose-response, points in duplicate. Here is the method: as §1, §2, §3, §4, §5, §6, §7, §8, §9, §10

For another experiment, the system named is DYRK kinases. The experiment is described as follows: radiometric kinase assay, summary for DYRK kinases. Type of experiment: biochemical. Conditions: DYRK1A, DYRK1B, DYRK2; listed as VS-77.
From the text: as §1
This point will be discussed in the molecular modeling part below.

The target of another experiment is CLK1, CLK2, and CLK4. Put plainly: radiometric kinase assay, summary for the other CLKs. Conditions: Table 2; read-out: inhibition of CLK1, CLK2, and CLK4 (best value). Type of experiment: biochemical, mouse. The source says:
The results are reported in Table 2 and in Supporting Information File 1.

A further experiment addresses Mm_CLK1 (Mus musculus, UniProt P22518). Put plainly: primary screening, short panel of mammalian kinases. It counts as biochemical. The source says: (§11) Our molecules have been submitted first to a primary screening against a panel of eight disease-related kinases: five members of the CMGC (for CDK, MAPK, GSK3, and CLK) group (CDK5/p25, CDK9/CyclinT, GSK3β, CLK1 and DYRK1A), one CAMK (calmodulin/calcium regulated kinase PIM1), one CK1 (the casein kinase CK1ε), and haspin as a […] kinase.
(§12) Figure 4 Primary evaluation of the inhibition of the new quinazolines against a short panel of mammalian kinases. Residual kinase activities are expressed in % of maximal activity, i.e., measured in the absence of inhibitor but with an equivalent dose of DMSO (solvent of the tested compounds). ATP concentration used in the kinase assays was 10 µM (values are means, n = 2). Kinases are from human origin (Homo sapiens) except CLK1 (from Mus musculus) and DYRK1A (from Rattus norvegicus). […]

The target in another experiment is T5, Hs_HASPIN (Homo sapiens, UniProt Q8TF76).
T5 sequence (Q8TF76 1-798): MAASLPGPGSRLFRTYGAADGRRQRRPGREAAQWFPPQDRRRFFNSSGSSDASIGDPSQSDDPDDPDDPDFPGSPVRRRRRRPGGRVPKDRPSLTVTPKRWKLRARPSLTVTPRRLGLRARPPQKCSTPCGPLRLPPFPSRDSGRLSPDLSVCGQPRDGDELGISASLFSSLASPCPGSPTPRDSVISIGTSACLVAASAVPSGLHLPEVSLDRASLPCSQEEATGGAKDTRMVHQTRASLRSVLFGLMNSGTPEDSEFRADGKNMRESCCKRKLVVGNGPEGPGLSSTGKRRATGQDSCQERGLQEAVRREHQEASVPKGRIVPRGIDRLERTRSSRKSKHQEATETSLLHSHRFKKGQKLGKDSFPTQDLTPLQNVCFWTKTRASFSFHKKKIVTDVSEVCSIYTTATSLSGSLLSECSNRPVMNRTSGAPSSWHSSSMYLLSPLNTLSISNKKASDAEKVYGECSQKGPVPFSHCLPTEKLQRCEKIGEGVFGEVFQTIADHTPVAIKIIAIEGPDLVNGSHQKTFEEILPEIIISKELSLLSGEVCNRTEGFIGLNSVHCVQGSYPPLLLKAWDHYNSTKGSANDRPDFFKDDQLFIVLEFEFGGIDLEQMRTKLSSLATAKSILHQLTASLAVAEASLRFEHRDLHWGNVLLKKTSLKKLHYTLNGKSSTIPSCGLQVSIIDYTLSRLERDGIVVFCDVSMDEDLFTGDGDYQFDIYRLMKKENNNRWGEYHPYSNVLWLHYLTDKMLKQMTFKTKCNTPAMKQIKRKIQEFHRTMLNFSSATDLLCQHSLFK
The description is as above. Particulars: ATP 10 µM, means, n = 2, read-out: Residual kinase activity Hs_HASPIN. Type of experiment: biochemical.
From the text: as §11, §12

For another experiment, the target named is Hs_GSK3β (Homo sapiens, UniProt P49841). Described as above. It counts as biochemical. Conditions: ATP 10 µM, means, n = 2, read-out: Residual kinase activity Hs_GSK3β.
Hs_GSK3β, sequence (P49841 whole entry): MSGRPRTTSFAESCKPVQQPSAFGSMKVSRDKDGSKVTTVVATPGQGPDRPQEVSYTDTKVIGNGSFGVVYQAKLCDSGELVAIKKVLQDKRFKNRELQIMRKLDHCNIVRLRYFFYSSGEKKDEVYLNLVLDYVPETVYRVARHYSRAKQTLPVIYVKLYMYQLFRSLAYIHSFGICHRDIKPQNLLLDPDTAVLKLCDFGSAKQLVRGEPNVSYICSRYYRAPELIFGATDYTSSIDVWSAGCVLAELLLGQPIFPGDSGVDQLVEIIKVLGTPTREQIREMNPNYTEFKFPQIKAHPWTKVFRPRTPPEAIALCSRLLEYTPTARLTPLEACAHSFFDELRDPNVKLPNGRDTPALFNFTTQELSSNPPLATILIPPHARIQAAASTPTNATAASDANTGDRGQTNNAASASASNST
From the text: as §11, §12

A further experiment deals with Hs_PIM1 (Homo sapiens, UniProt P11309). The experiment is described as above. It counts as biochemical. Conditions: ATP 10 µM, means, n = 2, read-out: Residual kinase activity Hs_PIM1.
Hs_PIM1, sequence (P11309 whole entry): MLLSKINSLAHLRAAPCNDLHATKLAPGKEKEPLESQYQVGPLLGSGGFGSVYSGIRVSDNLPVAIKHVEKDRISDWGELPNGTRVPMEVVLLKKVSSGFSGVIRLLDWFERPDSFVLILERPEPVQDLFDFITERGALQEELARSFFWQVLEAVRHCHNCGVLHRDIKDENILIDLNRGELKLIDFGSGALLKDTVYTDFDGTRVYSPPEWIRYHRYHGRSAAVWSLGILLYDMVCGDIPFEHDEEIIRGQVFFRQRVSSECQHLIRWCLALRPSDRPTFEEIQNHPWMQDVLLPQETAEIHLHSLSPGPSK
From the text: as §11, §12

The target of experiment [2] is T3, Rn_DYRK1A. The description is as above. Type of experiment: biochemical. Conditions: ATP 10 µM, means, n = 2, read-out: Residual kinase activity Rn_DYRK1A.
From the text: as §11, §12

In a further experiment the target is Hs_CDK9/CyclinT (Homo sapiens, UniProt P50750). Described as above. It counts as biochemical. Conditions: ATP 10 µM, means, n = 2, read-out: Residual kinase activity Hs_CDK9/CyclinT.
Hs_CDK9/CyclinT, sequence (P50750 whole entry): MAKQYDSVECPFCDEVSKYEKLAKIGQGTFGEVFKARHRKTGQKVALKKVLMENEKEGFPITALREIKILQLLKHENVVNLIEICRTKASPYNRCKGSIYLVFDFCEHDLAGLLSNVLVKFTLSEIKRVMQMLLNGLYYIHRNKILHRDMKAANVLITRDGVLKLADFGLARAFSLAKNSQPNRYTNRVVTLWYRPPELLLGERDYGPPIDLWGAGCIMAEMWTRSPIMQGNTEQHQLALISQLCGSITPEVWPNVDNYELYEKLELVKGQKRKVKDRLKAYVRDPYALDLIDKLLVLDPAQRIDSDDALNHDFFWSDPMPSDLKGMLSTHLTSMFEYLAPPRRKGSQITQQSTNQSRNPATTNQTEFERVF
Hs_CDK9/CyclinT, sequence (O60563 whole entry partner): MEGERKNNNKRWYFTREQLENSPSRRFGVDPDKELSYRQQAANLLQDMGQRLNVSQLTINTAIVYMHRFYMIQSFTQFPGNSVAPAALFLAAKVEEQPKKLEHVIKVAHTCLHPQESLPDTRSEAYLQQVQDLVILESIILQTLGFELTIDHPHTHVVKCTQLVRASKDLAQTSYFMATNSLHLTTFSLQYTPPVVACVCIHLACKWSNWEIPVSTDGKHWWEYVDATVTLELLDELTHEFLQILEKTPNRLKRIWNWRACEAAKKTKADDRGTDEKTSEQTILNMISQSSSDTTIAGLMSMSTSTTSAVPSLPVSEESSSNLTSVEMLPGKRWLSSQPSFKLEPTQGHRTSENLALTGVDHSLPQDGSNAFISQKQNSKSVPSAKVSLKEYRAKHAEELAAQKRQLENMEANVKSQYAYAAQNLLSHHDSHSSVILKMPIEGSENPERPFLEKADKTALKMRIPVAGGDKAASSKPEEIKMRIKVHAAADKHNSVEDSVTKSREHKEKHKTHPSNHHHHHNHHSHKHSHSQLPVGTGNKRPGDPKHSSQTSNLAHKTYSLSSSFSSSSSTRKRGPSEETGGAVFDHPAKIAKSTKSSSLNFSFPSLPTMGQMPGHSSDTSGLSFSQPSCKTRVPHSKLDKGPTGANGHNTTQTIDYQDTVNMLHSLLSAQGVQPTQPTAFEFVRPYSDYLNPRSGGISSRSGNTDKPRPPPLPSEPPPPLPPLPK
From the text: as §11, §12

For another experiment, the target named is Hs_CK1ε (Homo sapiens, UniProt P49674). The description is as above. Type of experiment: biochemical. Conditions: ATP 10 µM, means, n = 2, read-out: Residual kinase activity Hs_CK1ε.
Hs_CK1ε, sequence (P49674 whole entry): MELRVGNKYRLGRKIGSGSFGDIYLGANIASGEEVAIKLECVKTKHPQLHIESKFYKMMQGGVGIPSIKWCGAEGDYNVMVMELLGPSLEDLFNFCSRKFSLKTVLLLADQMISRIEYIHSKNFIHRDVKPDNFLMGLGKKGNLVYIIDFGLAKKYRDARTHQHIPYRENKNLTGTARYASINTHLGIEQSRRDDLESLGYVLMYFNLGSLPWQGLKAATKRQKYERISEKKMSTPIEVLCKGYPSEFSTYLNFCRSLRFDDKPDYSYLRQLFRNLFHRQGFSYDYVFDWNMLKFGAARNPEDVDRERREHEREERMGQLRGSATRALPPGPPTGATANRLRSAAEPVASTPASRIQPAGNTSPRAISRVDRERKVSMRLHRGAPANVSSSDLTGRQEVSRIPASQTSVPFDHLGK
From the text: as §11, §12

A further experiment has as its target Hs_CDK5/p25 (Homo sapiens, UniProt Q00535). Described as above. Type of experiment: biochemical. Particulars: ATP 10 µM, means, n = 2, read-out: Residual kinase activity Hs_CDK5/p25.
From the text: as §11, §12

“Also recorded” adds a separate entry of the source. Some results are limits rather than exact numbers.

Mm_CLK1, sequence (P22518 whole entry): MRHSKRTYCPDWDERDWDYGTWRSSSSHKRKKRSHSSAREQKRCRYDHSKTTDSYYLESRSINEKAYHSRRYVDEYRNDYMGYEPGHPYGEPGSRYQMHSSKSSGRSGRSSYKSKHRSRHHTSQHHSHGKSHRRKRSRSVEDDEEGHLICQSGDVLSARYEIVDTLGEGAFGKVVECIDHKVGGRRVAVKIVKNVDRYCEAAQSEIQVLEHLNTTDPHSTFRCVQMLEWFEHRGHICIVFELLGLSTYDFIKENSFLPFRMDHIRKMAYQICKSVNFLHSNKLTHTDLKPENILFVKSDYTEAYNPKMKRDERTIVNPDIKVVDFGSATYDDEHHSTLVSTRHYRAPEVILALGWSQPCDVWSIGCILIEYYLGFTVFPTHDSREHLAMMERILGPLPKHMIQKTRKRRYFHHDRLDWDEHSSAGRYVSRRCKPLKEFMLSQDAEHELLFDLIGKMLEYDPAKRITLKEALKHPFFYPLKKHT
Hs_CDK5/p25, sequence (Q00535 whole entry): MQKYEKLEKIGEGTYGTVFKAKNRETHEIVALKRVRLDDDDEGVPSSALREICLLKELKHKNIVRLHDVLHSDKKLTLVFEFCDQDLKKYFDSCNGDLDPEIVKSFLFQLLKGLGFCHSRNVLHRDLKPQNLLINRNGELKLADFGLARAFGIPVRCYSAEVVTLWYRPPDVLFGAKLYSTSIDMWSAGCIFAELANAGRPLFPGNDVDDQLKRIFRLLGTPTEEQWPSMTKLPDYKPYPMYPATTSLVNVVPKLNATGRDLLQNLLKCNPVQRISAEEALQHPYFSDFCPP
Hs_CDK5/p25, sequence (Q15078 99-307 partner limits assumed): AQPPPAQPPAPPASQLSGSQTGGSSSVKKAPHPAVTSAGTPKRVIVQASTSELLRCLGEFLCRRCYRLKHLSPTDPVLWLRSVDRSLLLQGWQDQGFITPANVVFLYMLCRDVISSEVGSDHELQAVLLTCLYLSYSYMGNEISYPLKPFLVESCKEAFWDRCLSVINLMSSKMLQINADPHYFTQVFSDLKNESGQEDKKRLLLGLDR
T4 sequence (Q92630 whole entry): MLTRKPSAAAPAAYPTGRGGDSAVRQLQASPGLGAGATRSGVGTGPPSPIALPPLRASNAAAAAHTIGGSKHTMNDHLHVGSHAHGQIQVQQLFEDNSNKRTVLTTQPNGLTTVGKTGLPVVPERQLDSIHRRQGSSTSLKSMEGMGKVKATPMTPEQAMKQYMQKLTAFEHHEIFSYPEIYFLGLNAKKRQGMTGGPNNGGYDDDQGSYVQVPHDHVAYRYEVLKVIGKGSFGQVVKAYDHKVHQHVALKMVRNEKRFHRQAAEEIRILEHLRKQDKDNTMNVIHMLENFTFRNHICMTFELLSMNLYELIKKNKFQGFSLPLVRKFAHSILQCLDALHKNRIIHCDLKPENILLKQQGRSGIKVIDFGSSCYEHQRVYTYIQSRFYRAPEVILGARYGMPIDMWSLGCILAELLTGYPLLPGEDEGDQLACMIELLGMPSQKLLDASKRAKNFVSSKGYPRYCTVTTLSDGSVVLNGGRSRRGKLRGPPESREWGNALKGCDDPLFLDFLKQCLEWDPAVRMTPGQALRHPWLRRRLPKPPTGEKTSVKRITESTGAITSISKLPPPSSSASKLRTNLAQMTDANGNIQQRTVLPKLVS
T1 sequence (Q9Y463 whole entry): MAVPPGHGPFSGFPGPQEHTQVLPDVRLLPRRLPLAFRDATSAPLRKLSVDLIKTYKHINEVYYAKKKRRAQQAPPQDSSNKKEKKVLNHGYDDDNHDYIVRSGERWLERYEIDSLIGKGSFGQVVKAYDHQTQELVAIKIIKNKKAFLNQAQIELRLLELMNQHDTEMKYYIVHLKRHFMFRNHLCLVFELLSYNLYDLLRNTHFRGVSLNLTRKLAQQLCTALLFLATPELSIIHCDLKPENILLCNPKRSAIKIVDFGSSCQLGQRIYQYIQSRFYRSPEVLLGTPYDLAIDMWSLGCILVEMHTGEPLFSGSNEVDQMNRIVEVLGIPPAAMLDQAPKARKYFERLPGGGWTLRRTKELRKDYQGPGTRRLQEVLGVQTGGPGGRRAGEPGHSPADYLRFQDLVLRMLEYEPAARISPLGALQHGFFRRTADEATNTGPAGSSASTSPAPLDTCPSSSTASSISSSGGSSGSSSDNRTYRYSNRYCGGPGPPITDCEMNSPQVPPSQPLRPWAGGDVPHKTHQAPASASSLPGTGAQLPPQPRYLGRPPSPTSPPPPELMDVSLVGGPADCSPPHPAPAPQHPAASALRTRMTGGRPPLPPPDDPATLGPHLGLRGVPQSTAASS

`Cc1ccc(-n2cc(COc3cccc4cnc(Nc5cc(Cl)cc(-c6cccc(C(=O)O)c6)c5)nc34)nn2)c([N+](=O)[O-])c1` [Compound 13b]: the IC50 at Hs_DYRK1B came out at 4.6 µM; at Hs_DYRK1A, 5.31 µM; at Rn_DYRK1A [1], 14.8 µM; on Hs_DYRK2 it was 11.7 µM; on CLK1, CLK2, and CLK4, 0.06 µM. In the experiment with DYRK kinases, the “inhibition of DYRK kinases” value is given as “low, but significant inhibition; also recorded: weak inhibitor”. Moreover, on Mm_CLK1 (1 and 10 µM), the “activity against CLK1 in primary screening” value is on record as “significant activity against CLK1”. Further, the remaining activity at 1 µM on Mm_CLK1 (compound 1 μM, ATP 10 µM, means, n = 2, read-out: Residual kinase activity Mm_CLK1) was 20%; at Hs_HASPIN (compound 1 μM), 74%; on Hs_GSK3β (compound 1 μM), not below 100%; on Hs_PIM1 (compound 1 μM), 88%; on Rn_DYRK1A [2] (compound 1 μM) it was 92%; at Hs_CDK9/CyclinT (compound 1 μM), 83%. For the same compound, the remaining activity at 1 µM at Hs_CK1ε (compound 1 μM) was not below 100%; at Hs_CDK5/p25 (compound 1 μM), 92%. Further, the remaining activity at 10 µM at Mm_CLK1 (compound 10 μM, ATP 10 µM, means, n = 2, read-out: Residual kinase activity Mm_CLK1) is 11%; on Hs_HASPIN (compound 10 μM), 74%; on Hs_GSK3β (compound 10 μM), 43%; on Hs_PIM1 (compound 10 μM), not below 100%; at Rn_DYRK1A [2] (compound 10 μM), 62%; at Hs_CDK9/CyclinT (compound 10 μM), 47%. Besides, the remaining activity at 10 µM at Hs_CK1ε (compound 10 μM) is not below 100%; at Hs_CDK5/p25 (compound 10 μM), 37%.
